Experimental findings from article PMC9154810, “Selective inhibition of carbonic anhydrase IX by sulphonylated 1,2,3-triazole incorporated benzenesulphonamides capable of inducing apoptosis” (Journal of Enzyme Inhibition and Medicinal Chemistry, 2022) are described below.

What is called Ki is the dissociation constant of the complex between target and ligand, obtained from inhibition or displacement. A higher Ki goes with lower affinity. One may read the viability as a read-out of living cells in per cent, often relative to untreated cells. In general, melting point refers to the temperature, or range, at which the solid turns liquid.

SMILES strings stand for the structures. Where two headings read alike, the source gives them in different places.

One data set concerns the target hCA IV (Homo sapiens, UniProt P22748). Briefly: stopped-flow CO2 hydrase assay, hCA IV.
A further data set deals with hCA II (Homo sapiens, UniProt P00918). Briefly: stopped-flow CO2 hydrase assay, hCA II.
The next data set has as its target hCA I (Homo sapiens, UniProt P00915). The experiment in a line: stopped-flow CO2 hydrase assay, hCA I.
Data set [1] can be described thus: MTT assay, cell viability. The format is cell-based. The settings on record: goat (Capra hircus), primary goat testicular cells, mean ± SEM, read-out: percent cell viability. How it is done: (§1) Goat (Capra hircus) testicular tissues were procured from slaughterhouses of Chandigarh (30°43′ N, 76°12′ E) and around Kurukshetra (29°6′ N, 76°50′ E) in 0.9% normal saline at 4 °C. The testicular cells/tissues were cultured in vitro in media-TCM199 and exposed to 10 µM concentration of given compounds for 6 h in a CO2 incubator with 5% CO2 and 95% humidity at 38 °C temperature.[22]^,[23]
Testicular cells were cultured in 96-well plates. Wells for blank control were without any cells and contained MTT [3-(4,5-dimethylthiazol-2-yl)-2,5-diphenyl-tetrazolium-bromide)], culture medium, and DMSO. The remaining wells were seeded with testicular cells, which were treated with given compounds at 10 µM concentration for 6 h. Post treatment, 10 µL of MTT stock solution was added to each well, and the reaction mixture was incubated for 2 h. After that 200 µL of DMSO was added in each well, followed by shaking for 10 min. Absorbance of reaction mixture was taken at 470 nm.
(In general: Tetrazolium assays rely on reduction of a dye to a coloured formazan, in cell work by metabolically active cells.)

For another data set, the target named is hCA IX (Homo sapiens, UniProt Q16790). The experiment in a line: stopped-flow CO2 hydrase assay, hCA IX. To be noted: for Selectivity index I/IX: ratio KI hCA I / KI hCA IX; for Selectivity index II/IX: ratio KI hCA II / KI hCA IX.
A further data set deals with testicular cells. Briefly: EB/AO differential staining, apoptosis detection and quantification. It is filed as cell-based, Goat (Capra hircus). The settings on record: 10 µM, 6 h, mean ± SEM; control 7.33 ± 0.33. How it is done:
as §1
Ethidium bromide and acridine orange (EB/AO) staining was used to determine the cyto-genotoxic nature of given compounds in testicular cells.[25] Briefly, the testicular cell suspension prepared from the treated testicular tissue was mixed with equal volume of EB/AO differential stain on a glass slide and covered with a coverslip. Observation and quantification of apoptotic cells were done with fluorescence microscope (Olympus, Japan) using filters of 500–525 nm. Cells appearing bright green were marked as normal healthy cells, while cells displaying orange-red fluorescence were marked as apoptotic.

The mark [2] stands for this setting: mean from three assays, stopped-flow technique, errors ± 5–10%.

Chain of hCA I (P00915 whole entry): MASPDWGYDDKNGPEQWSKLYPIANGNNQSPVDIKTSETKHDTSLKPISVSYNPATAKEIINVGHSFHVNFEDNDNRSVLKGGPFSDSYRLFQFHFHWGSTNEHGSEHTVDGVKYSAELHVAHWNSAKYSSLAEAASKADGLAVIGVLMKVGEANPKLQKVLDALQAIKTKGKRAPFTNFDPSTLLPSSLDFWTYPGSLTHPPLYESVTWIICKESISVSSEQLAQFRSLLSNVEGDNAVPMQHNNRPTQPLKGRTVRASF
Chain of hCA IV (P22748 19-312): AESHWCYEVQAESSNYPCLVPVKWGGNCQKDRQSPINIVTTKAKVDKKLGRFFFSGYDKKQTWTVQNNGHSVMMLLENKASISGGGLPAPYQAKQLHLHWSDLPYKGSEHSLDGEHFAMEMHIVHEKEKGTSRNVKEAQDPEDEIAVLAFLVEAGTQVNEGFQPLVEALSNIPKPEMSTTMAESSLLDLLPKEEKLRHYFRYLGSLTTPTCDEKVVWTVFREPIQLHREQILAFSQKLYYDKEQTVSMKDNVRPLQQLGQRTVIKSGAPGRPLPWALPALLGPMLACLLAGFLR
Source text for hCA II: (§2) An Sx.18Mv-R Applied Photophysics (Oxford, UK) stopped-flow instrument was used to assay the catalytic activity of various CA isozymes for CO2 hydration reaction.[21]
Source text for hCA IV: as §2
Source text for hCA IX: as §2

The compound `NS(=O)(=O)c1cccc(-n2nnc(S(=O)(=O)c3ccccc3)c2-c2ccc(Cl)cc2)c1` [Compound 10d, 3-(5-(4-chlorophenyl)-4-(phenylsulphonyl)-1H-1,2,3-triazol-1-yl)benzenesulphonamide] yielded a melting point of 123 to 125 °C. The compound further returned an inhibitory constant (Ki) on hCA IV of 91.8 nM. The affinity at hCA II, expressed as Ki, was 58.4 nM. This compound also had a Ki at hCA I (setting [2]) of 696 nM. Also, the viability at 6 h, 10 µM in data set [1] stood at 32 ± 6.92%. Besides, at hCA IX, the Ki came out at 16.4 nM, the “Selectivity index I/IX” value turned out to be 42.42 and the “Selectivity index II/IX” value is on record as 3.56. The same compound showed a percent apoptosis in the data set on testicular cells of 35.00 ± 1.15%.

In turn, `COc1ccc(-c2c(S(=O)(=O)c3ccccc3)nnn2-c2cccc(S(N)(=O)=O)c2)cc1Br` [Compound 10h, 3-(5-(3-bromo-4-methoxyphenyl)-4-(phenylsulphonyl)-1H-1,2,3-triazol-1-yl)benzenesulphonamide] gave a melting point of 231 to 233 °C. The Ki on hCA IV amounted to 6050 nM. In addition, the Ki on hCA II worked out at 649 nM. This compound came in with an inhibition constant Ki on hCA I of 8030 nM. In addition, the inhibitory constant (Ki) on hCA I (setting [2]) is 8030 nM. The viability at 6 h, 10 µM in data set [1] is 46.7 ± 4.8%. On hCA IX, the affinity, expressed as Ki, was 22.8 nM; the “selectivity for hCA IX over hCA I” value is given as “more than 100 fold”; the “Selectivity index I/IX” value is recorded as 352.32; the “Selectivity index II/IX” value stood at 28.45. Also, the percent apoptosis in the data set on testicular cells stood at 29.33 ± 1.45%.
